Measurements published in patent publication US20110142802A1, “FUNGICIDAL COMPOSITIONS” (SYNGENTA CROP PROTECTION, INC., priority 2008, published 2011).
Where “and” joins values, the source holds several entries; their conditions need not be identical. Equal entries are not always repeated.

What was measured:
[1] = test system: Mycosphaerella graminicola (Septoria tritici; SEPTTR); assay: Growth inhibition of Mycosphaerella graminicola in nutrient broth, 96-well microtiter plate, photometric; format: cell-based; conditions: 4 days
From the text: A synergistic effect exists whenever the action of an active ingredient combination is greater than the sum of the actions of the individual components. The action to be expected E for a given active ingredient combination obeys the so-called COLBY formula and can be calculated as follows (COLBY, S. R. “Calculating synergistic and antagonistic responses of herbicide combination”. Weeds, Vol. 15, pages 20-22; 1967): ppm=milligrams of active ingredient (=a.i.) per liter of spray mixture X=% action by active ingredient A) using p ppm of active ingredient Y=% action by active ingredient B) using q ppm of active ingredient. According to COLBY, the expected (additive) action of active ingredients A)+B) using p+q ppm of active ingredient is If the action actually observed (O) is greater than the expected action (E), then the action of the combination is super-additive, i.e. there is a synergistic effect. In mathematical terms, synergism corresponds to a positive value for the difference of (O-E). In the case of purely complementary addition of activities (expected activity), said difference (O-E) is zero. A negative value of said difference (O-E) signals a loss of activity compared to the expected activity. Mycosphaerella graminicola (Septoria tritici; […]): Conidia of the fungus from cryogenic storage are directly mixed into nutrient broth (PDB potato dextrose broth). After placing a (DMSO) solution of the test compounds into a microtiter plate (96-well format) the nutrient broth containing the fungal spores is added.

[2] = test system: Mycosphaerella arachidis (Cercospora arachidicola; MYCOAR); assay: Growth inhibition of Mycosphaerella arachidis in nutrient broth, 96-well microtiter plate, photometric at 620 nm; format: cell-based; conditions: 8 days
From the text: A synergistic effect exists whenever the action of an active ingredient combination is greater than the sum of the actions of the individual components. The action to be expected E for a given active ingredient combination obeys the so-called COLBY formula and can be calculated as follows (COLBY, S. R. “Calculating synergistic and antagonistic responses of herbicide combination”. Weeds, Vol. 15, pages 20-22; 1967): ppm=milligrams of active ingredient (=a.i.) per liter of spray mixture X=% action by active ingredient A) using p ppm of active ingredient Y=% action by active ingredient B) using q ppm of active ingredient. According to COLBY, the expected (additive) action of active ingredients A)+B) using p+q ppm of active ingredient is If the action actually observed (O) is greater than the expected action (E), then the action of the combination is super-additive, i.e. there is a synergistic effect. In mathematical terms, synergism corresponds to a positive value for the difference of (O-E). In the case of purely complementary addition of activities (expected activity), said difference (O-E) is zero. A negative value of said difference (O-E) signals a loss of activity compared to the expected activity. Mycosphaerella arachidis (Cercospora arachidicola; MYCOAR): Conidia of the fungus from cryogenic storage are directly mixed into nutrient broth (PDB potato dextrose broth). After placing a (DMSO) solution of the test compounds into a microtiter plate (96-well format) the nutrient broth containing the fungal spores is added.

[3] = test system: Pyrenophora teres (PYRNTE); assay: Growth inhibition of Pyrenophora teres in nutrient broth, 96-well microtiter plate, photometric; format: cell-based; conditions: 3 days
From the text: A synergistic effect exists whenever the action of an active ingredient combination is greater than the sum of the actions of the individual components. The action to be expected E for a given active ingredient combination obeys the so-called COLBY formula and can be calculated as follows (COLBY, S. R. “Calculating synergistic and antagonistic responses of herbicide combination”. Weeds, Vol. 15, pages 20-22; 1967): ppm=milligrams of active ingredient (=a.i.) per liter of spray mixture X=% action by active ingredient A) using p ppm of active ingredient Y=% action by active ingredient B) using q ppm of active ingredient. According to COLBY, the expected (additive) action of active ingredients A)+B) using p+q ppm of active ingredient is If the action actually observed (O) is greater than the expected action (E), then the action of the combination is super-additive, i.e. there is a synergistic effect. In mathematical terms, synergism corresponds to a positive value for the difference of (O-E). In the case of purely complementary addition of activities (expected activity), said difference (O-E) is zero. A negative value of said difference (O-E) signals a loss of activity compared to the expected activity. Pyrenophora teres ([…]): Conidia of the fungus from cryogenic storage are directly mixed into nutrient broth (PDB potato dextrose broth). After placing a (DMSO) solution of the test compounds into a microtiter plate (96-well format) the nutrient broth containing the fungal spores is added.

[4] = test system: Alternaria solani (ALTESO); assay: Growth inhibition of Alternaria solani in nutrient broth, 96-well microtiter plate, photometric; format: cell-based; conditions: 3 days
From the text: A synergistic effect exists whenever the action of an active ingredient combination is greater than the sum of the actions of the individual components. The action to be expected E for a given active ingredient combination obeys the so-called COLBY formula and can be calculated as follows (COLBY, S. R. “Calculating synergistic and antagonistic responses of herbicide combination”. Weeds, Vol. 15, pages 20-22; 1967): ppm=milligrams of active ingredient (=a.i.) per liter of spray mixture X=% action by active ingredient A) using p ppm of active ingredient Y=% action by active ingredient B) using q ppm of active ingredient. According to COLBY, the expected (additive) action of active ingredients A)+B) using p+q ppm of active ingredient is If the action actually observed (O) is greater than the expected action (E), then the action of the combination is super-additive, i.e. there is a synergistic effect. In mathematical terms, synergism corresponds to a positive value for the difference of (O-E). In the case of purely complementary addition of activities (expected activity), said difference (O-E) is zero. A negative value of said difference (O-E) signals a loss of activity compared to the expected activity. Alternaria solani ([…]): Conidia harvested from a freshly grown colony of the fungus are directly mixed into nutrient broth (PDB potato dextrose broth). After placing a (DMSO) solution of the test compounds into a microtiter plate (96-well format) the nutrient broth containing the fungal spores is added.

[5] = single active ingredient 0.0039 mg/L (ppm ai)
[6] = single active ingredient 0.0078 mg/L (ppm ai)
[7] = single active ingredient 0.0156 mg/L (ppm ai)
[8] = single active ingredient 0.0313 mg/L (ppm ai)
[9] = single active ingredient 0.0625 mg/L (ppm ai)
[10] = single active ingredient 0.125 mg/L (ppm ai)
[11] = single active ingredient 0.25 mg/L (ppm ai)
[12] = single active ingredient 0.5 mg/L (ppm ai)

## COc1nnc(C)c(-c2ccc(Cl)nc2)c1-c1c(F)cc(F)cc1F [Compound A-1.3, 4-(6-chloro-pyridin-3-yl)-6-methoxy-3-methyl-5-(2,4,6-trifluoro-phenyl)-pyridazine]
other
  melting point: 123 to 124 °C

## Cc1nnc(Cl)c(-c2c(F)cccc2Cl)c1-c1ccc(Cl)nc1 [Compound A-1.2, 3-chloro-5-(6-chloro-pyridin-3-yl)-6-methyl-4-(2-chloro-6-fluoro-phenyl)-pyridazine]
other
  melting point: 166 to 167 °C

## N#Cc1c(Cl)c(Cl)c(Cl)c(C#N)c1Cl [Chlorothalonil, chlorothalonil]
[1]; [5]
  Observed control in % (% Cobs): 3.0%
[1]; [6]
  Observed control in % (% Cobs): 0.0%
[1]; [7]
  Observed control in % (% Cobs): 0.7%
[1]; [8]
  Observed control in % (% Cobs): 0.0%
[2]; [8]
  Observed control in % (% Cobs): 7.6%
[2]; [9]
  Observed control in % (% Cobs): 8.2%
[2]; [10]
  Observed control in % (% Cobs): 9.9%

## CN1COCN(Cc2cnc(Cl)s2)/C1=N\[N+](=O)[O-] [Thiomethoxam, thiamethoxam]
[1]; [5]
  Observed control in % (% Cobs): 1.8%
[1]; [6]
  Observed control in % (% Cobs): 1.6%
[1]; [7]
  Observed control in % (% Cobs): 0.0%
[1]; [8]
  Observed control in % (% Cobs): 2.9%
[1]; [9]
  Observed control in % (% Cobs): 0.0%
[3]; [9]
  Observed control in % (% Cobs): 0.0%
[3]; [10]
  Observed control in % (% Cobs): 0.0%
[3]; [11]
  Observed control in % (% Cobs): 0.0%

## Cc1cc(C2CC2)nc(Nc2ccccc2)n1 [Cyprodinil, cyprodinil]
[3]; [9]
  Observed control in % (% Cobs): 23.8%
[3]; [10]
  Observed control in % (% Cobs): 45.1%

## mancozeb
[4]; [11]
  Observed control in % (% Cobs): 0.7%

## Cc1nnc(Cl)c(-c2c(F)cc(F)cc2F)c1-c1ccc(Cl)nc1 [Compound A-1.1, 3-chloro-5-(6-chloro-pyridin-3yl)-6-methyl-4-(2,4,6-trifluoro-phenyl)-pyridazine]
[1]; [7]
  Observed control in % (% Cobs): 1.4% and 0.3% and 1.6% and 3.4%
[1]; [8]
  Observed control in % (% Cobs): 3.7% and 5.3% and 6.3%
[1]; [9]
  Observed control in % (% Cobs): 14.9% and 13.0% and 15.1% and 13.7%
[1]; [10]
  Observed control in % (% Cobs): 59.1% and 67.2% and 58.5% and 80.1%
[2]; [8]
  Observed control in % (% Cobs): 6.7%
[2]; [9]
  Observed control in % (% Cobs): 3.5% and 5.1%
[2]; [11]
  Observed control in % (% Cobs): 51.3% and 56.5%
[4]; [11]
  Observed control in % (% Cobs): 13.3% and 7.0%
[4]; [12]
  Observed control in % (% Cobs): 28.4% and 39.9%
[4]; single active ingredient 1.0 mg/L (ppm ai)
  Observed control in % (% Cobs): 38.8%
other
  melting point: 182 to 183 °C

## Fc1ccc([C@]2(Cn3cncn3)O[C@H]2c2ccccc2Cl)cc1 (racemic) [Epoxiconazole, epoxiconazole]
[1]; [9]
  Observed control in % (% Cobs): 6.8%
[1]; [10]
  Observed control in % (% Cobs): 18.0%
[1]; [11]
  Observed control in % (% Cobs): 36.8%
[1]; [12]
  Observed control in % (% Cobs): 51.8%
[4]; [9]
  Observed control in % (% Cobs): 0.0%
[4]; [10]
  Observed control in % (% Cobs): 24.3%
[4]; [11]
  Observed control in % (% Cobs): 28.9%

## CC(C1CC1)C(O)(Cn1cncn1)c1ccc(Cl)cc1 (centres unmarked) [Cyproconazole, cyproconazole]
[1]; [5]
  Observed control in % (% Cobs): 2.3%
[1]; [6]
  Observed control in % (% Cobs): 2.8%
[1]; [7]
  Observed control in % (% Cobs): 4.7%
[1]; [8]
  Observed control in % (% Cobs): 1.9%
[1]; [9]
  Observed control in % (% Cobs): 0.6%
[3]; [9]
  Observed control in % (% Cobs): 0.0%
[3]; [10]
  Observed control in % (% Cobs): 0.0%
[3]; [11]
  Observed control in % (% Cobs): 15.1%

## CC1COC(Cn2cncn2)(c2ccc(Oc3ccc(Cl)cc3)cc2Cl)O1 (centres unmarked) [Difenoconazole, difenoconazole]
[2]; [7]
  Observed control in % (% Cobs): 66.5%
[4]; [9]
  Observed control in % (% Cobs): 37.6%
[4]; [10]
  Observed control in % (% Cobs): 36.9%

## OC(Cc1ccccc1Cl)(Cn1nc[nH]c1=S)C1(Cl)CC1 (centres unmarked) [Prothioconazole, prothioconazole]
[2]; [7]
  Observed control in % (% Cobs): 22.0%
[2]; [8]
  Observed control in % (% Cobs): 59.1%
[3]; [9]
  Observed control in % (% Cobs): 28.9%
[3]; [10]
  Observed control in % (% Cobs): 50.1%
[3]; [11]
  Observed control in % (% Cobs): 66.6%

## CO/C=C(/C(=O)OC)c1ccccc1Oc1cc(Oc2ccccc2C#N)ncn1 [Azoxystrobin, azoxystrobin]
[2]; [8]
  Observed control in % (% Cobs): 44.8%
[2]; [9]
  Observed control in % (% Cobs): 76.4%
